PMC6271202, “1,2-Substituted 4-(1H)-Quinolones: Synthesis, Antimalarial and Antitrypanosomal Activities in Vitro” (Molecules, 2014)
Read-outs that look alike come from different tables or passages of the source.

How the values were obtained:
[1] = system: P. falciparum NF54; assay: Antimalarial assay in vitro (3H-hypoxanthine microculture radioisotope technique); type: cell-based, Plasmodium falciparum; settings: for IC50: Plasmodium falciparum, read-out: IC50 (µM) NF54; for SI L-6/NF54: selectivity index, quotient of L-6 cytotoxicity IC50 and NF54 IC50
Method: (§1) The drug sensitive strain of P. falciparum (NF54) was obtained from Schipol Airport, The Netherlands. […] L-6 cells were derived from rat skeletal myoblasts.
Antimalarial activity in vitro was determined by means of the microculture radioisotope technique which makes use of ^3H-hypoxanthine as an indicator of parasite viability. In this assay the drug sensitive NF54 strain was employed. Parasite cultures supplemented with HEPES (5.94 g/L), NaHCO3 (2.1 g/L), neomycin (100 U/mL), Albumax® (5 g/L) and washed human red cells A^+ at 2.5% haematocrit (0.3% parasitaemia) were incubated in RPMI 1640 medium without hypoxanthine and placed in the 96-well plates. Solutions of 4-(1H)-quinolone derivatives and the positive control chloroquine were dissolved in DMSO at 10 mg/mL and added to the first well followed by serial dilution to afford test concentrations ranging from 100 to 0.002 mg/L. After 48 h incubation at 37 °C, 4% CO2, 3% O2, 93% N2, ^3H-hypoxyanthine was added (0.5 µC/well) and then the plates were incubated further for 24 h under the same condition. The plates were freeze/thawed rapidly, harvested on glass fibre filters and dried. Radioactive hypoxanthine uptake was measured by scintillation counter. IC50 values were calculated from sigmoidal inhibition curves by linear regression using Microsoft Excel. Assays were carried out two times in triplicate.

[2] = system: rat skeletal muscle cell (L-6); assay: Cytotoxicity assay (Alamar Blue); type: cell-based; settings: Myoblast, read-out: IC50 (µM) L-6
Method: as §1
96-well plates were seeded with 100 µL of RPMI 1640 medium supplemented with 1% L-glutamine and 10% fetal bovine serum, and rat skeletal muscle cell (L-6) (4 × 10^3/mL). The 4-(1H)-quinolone derivatives and the positive control podophyllotoxin were dissolved in DMSO and with a serial dilution ranging from […] were added into the wells in triplicate. The plates were incubated for 70 h and assessed microscopically for cell growth. Alamar Blue solution (10 µL) was then added to each well and incubation continued for 2 h before reading with a Spectramax Gemini XS at EX/EM 536/588. The IC50 values were calculated by linear regression from the sigmoidal dose inhibition curves using SoftmaxPro software. Tests were carried out two times in triplicate.

[3] = system: T. b. rhodesiense STIB 900 strain; assay: Antitrypanosomal assay in vitro (Alamar Blue); type: cell-based, Trypanosoma brucei rhodesiense; settings: for IC50: Trypanosoma brucei, read-out: IC50 (µM) STIB900; for SI L-6/STIB900: selectivity index, quotient of cytotoxicity and antitrypanosomal IC50 values
Method: as §1
In vitro antitrypanosomal assay was carried out against the bloodstream form of T. b. rhodesiense STIB 900 strain using the Alamar Blue assay. The STIB 900 strain was suspended in fresh medium containing 1% MEM powder medium, MEM non-essential amino acids (100x) supplemented with 25 mM HEPES, additional glucose (1 g/L), 0.2 mM 2-mercaptoethanol, 1.0 mM sodium pyruvate and 15% heat inactivated horse serum. 50 µL (4 × 10^3 trypanosomes/mL) of this suspension was seeded in each well of the 96-well microtiter plate which contained test compounds and the positive control melarsoprol which were dissolved in DMSO and serially diluted to concentrations ranging from […]. The plates were incubated at 37 °C under 5% CO2 atmosphere for 70 h. Alamar Blue solution (10 µL) was added and incubation was continued for further 2–4 h. Plates were read with a Spectramax Gemini XS (Molecular Devices Cooperation, Sunnyvale, CA, USA) at EX/EM (536/588 nm). The IC50 values were calculated by linear regression from the sigmoidal dose inhibition curves using SoftmaxPro software. Tests were carried out two times in triplicate.

[4] = chloroquine sensitive strain P. falciparum NF54, 72 h total incubation
[5] = L-6 rat skeletal myoblasts, 70 h incubation
[6] = bloodstream form T. b. rhodesiense STIB 900, 70 h incubation

Compound: CCCCCCCCCCCCCCCc1cc(=O)c2ccccc2n1C [Compound 30]
- IC50 [1, 4]: 6.4 µM
- loss in potency compared to 29 ([1]; antimalarial potency, P. falciparum NF54, hydrogenation of the alkenyl chain of 29): 16 fold
- SI L-6/NF54 [1]: 15.91
- IC50 [2, 5]: 101 µM
- IC50 [3, 6]: 42.4 µM
- SI L-6/STIB900 [3]: 2.39

Compound: CCCCCCCCCCC#CCCc1cc(=O)c2ccccc2n1C [Compound 36a]
- IC50 [1, 4]: 3.11 µM
- SI L-6/NF54 [1]: 4.29
- IC50 [2, 5]: 13.3 µM
- IC50 [3, 6]: 33.5 µM
- SI L-6/STIB900 [3]: 0.39

Compound: CCCCCCCCCC/C=C/c1cc(=O)c2ccccc2n1CCBr [Compound 18b]
- IC50 [1, 4]: 2.3 µM
- SI L-6/NF54 [1]: 16.69
- IC50 [2, 5]: 38.4 µM
- IC50 [3, 6]: 8.28 µM
- SI L-6/STIB900 [3]: 4.63

Compound: Cn1c(/C=C/CCCCCCCCCBr)cc(=O)c2ccccc21 [Compound 19]
- IC50 [1, 4]: 0.69 µM
- SI L-6/NF54 [1]: 52.64
- IC50 [2, 5]: 36.3 µM
- IC50 [3, 6]: 1.07 µM

Compound: C=CCn1c(/C=C/CCCCCCCCCCCC)cc(=O)c2ccccc21 [Compound 18e]
- IC50 [1, 4]: 0.31 µM
- SI L-6/NF54 [1]: 45.78
- IC50 [2, 5]: 14 µM
- IC50 [3, 6]: 8.18 µM
- SI L-6/STIB900 [3]: 1.71

Compound: CCCCCCCCCCC#CCCc1cc(=O)c2ccccc2n1CC [Compound 36b]
- IC50 [1, 4]: 0.45 µM
- SI L-6/NF54 [1]: 29.82
- IC50 [2, 5]: 13.6 µM
- IC50 [3, 6]: 16.6 µM
- SI L-6/STIB900 [3]: 0.82

Compound: Cn1c(-c2ccc(CCCCCCCCCCN3CCCCC3)cc2)cc(=O)c2ccccc21 [Compound 5b, 1-Methyl-2-[4′-(10′′-piperidinyldecyl)phenyl]-4-(1H)-quinolone]
- IC50 [1, 4]: 0.82 µM
- SI L-6/NF54 [1]: 11.73
- IC50 [2, 5]: 9.63 µM
- IC50 [3, 6]: 3.41 µM
- SI L-6/STIB900 [3]: 2.83

Compound: CCCCCC/C=C\CCc1cc(=O)c2ccccc2n1C [Compound 28]
- IC50 [1, 4]: 15.3 µM
- SI L-6/NF54 [1]: 3.22
- IC50 [2, 5]: 49.5 µM
- IC50 [3, 6]: 11 µM
- SI L-6/STIB900 [3]: 4.48

Compound: CCCCCCCCCCCC/C=C/c1cc(=O)c2ccccc2n1CCCC [Compound 18g]
- IC50 [1, 4]: 2.29 µM
- SI L-6/NF54 [1]: 5.79
- IC50 [2, 5]: 13.3 µM
- IC50 [3, 6]: 18.7 µM
- SI L-6/STIB900 [3]: 0.70

Compound: Cn1c(-c2ccc(CCCCCCBr)cc2)cc(=O)c2ccccc21 [Compound 5a, 1-Methyl-2-[4′-(6′′-bromohexyl)phenyl]-4(1H)-quinolone]
- IC50 [1, 4]: 0.09 µM
- IC50 [2, 5]: 6.63 µM
- IC50 [3, 6]: 1.64 µM
- SI L-6/STIB900 [3]: 4.04

Compound: CCCCCOc1ccc(/C=C/c2cc(=O)c3ccccc3n2CCBr)cc1 [Compound 11]
- IC50 [1, 4]: 1.56 µM
- SI L-6/NF54 [1]: 27.11
- IC50 [2, 5]: 42.4 µM
- IC50 [3, 6]: 3.82 µM
- SI L-6/STIB900 [3]: 11.10

Compound: CCCCCCCCCC=CCCCCc1cc(=O)c2ccccc2n1C [Compound 29]
- IC50 [1, 4]: 0.39 µM
- SI L-6/NF54 [1]: 33.84
- IC50 [2, 5]: 13.2 µM
- IC50 [3, 6]: 10.8 µM

Compound: CCCCCCCCC/C=C/c1cc(=O)c2ccccc2n1C [Compound 18a]
- IC50 [1, 4]: 12.4 µM
- SI L-6/NF54 [1]: 3.61
- IC50 [2, 5]: 44.7 µM
- IC50 [3, 6]: 52.2 µM
- SI L-6/STIB900 [3]: 0.86

Compound: CCCCCCCCCCCCC#Cc1cc(=O)c2ccccc2n1C [Compound 35]
- IC50 [1, 4]: 0.84 µM
- SI L-6/NF54 [1]: 18.78
- IC50 [2, 5]: 15.8 µM
- IC50 [3, 6]: 10.5 µM
- SI L-6/STIB900 [3]: 1.50

Compound: C#CCn1c(/C=C/CCCCCCCCCCCC)cc(=O)c2ccccc21 [Compound 18d]
- IC50 [1, 4]: 4.64 µM
- SI L-6/NF54 [1]: 5.32
- IC50 [2, 5]: 24.7 µM
- IC50 [3, 6]: 24.5 µM
- SI L-6/STIB900 [3]: 1.01

Compound: CCCOc1ccc(/C=C/c2cc(=O)c3ccccc3n2CCBr)cc1 [Compound 10a, 1-(2-Bromoethyl)-2-[(1′E)-(4′′-propoxyphenyl)ethenyl]-4-(1H)-quinolone]
- IC50 [1, 4]: 1.58 µM
- SI L-6/NF54 [1]: 16.45
- IC50 [2, 5]: 25.8 µM
- IC50 [3, 6]: 1.25 µM

Compound: CCN(CC)CCCC(C)Nc1ccnc2cc(Cl)ccc12 (stereo not drawn) [Chloroquine, reference compound]
- IC50 ([1]; NF54, 72 h): 0.0063 µM

Compound: CCCOc1ccc(/C=C/c2cc(=O)c3cc(Cl)ccc3n2C)cc1 [Compound 10b, 6-Chloro-1-methyl-2-[(1′E)-(4′′-propoxyphenyl)ethenyl]-4-(1H)-quinolone]
- IC50 [1, 4]: 0.47 µM
- SI L-6/NF54 [1]: 342.89
- IC50 [2, 5]: 161 µM
- IC50 [3, 6]: 21.9 µM
- SI L-6/STIB900 [3]: 7.36

Compound: CC1=C(/C=C/c2cc(=O)c3ccccc3n2CCBr)C(C)(C)CCC1 [Compound 21, 1-(2-Bromoethyl)-2-[(1′E)-2′-(2′′,6′′,6′′-trimethyl-1′′-cyclohexen-1′′-yl)ethenyl]-4-(1H)-quinol-one]
- IC50 [1, 4]: 1.99 µM
- SI L-6/NF54 [1]: 16.65
- IC50 [2, 5]: 33.2 µM
- IC50 [3, 6]: 8.85 µM
- SI L-6/STIB900 [3]: 3.76

Compound: CCCCCCCCCCCC/C=C/c1cc(=O)c2ccccc2n1CCC [Compound 18f]
- IC50 [1, 4]: 1.19 µM
- SI L-6/NF54 [1]: 10.99
- IC50 [2, 5]: 13 µM
- IC50 [3, 6]: 19.1 µM
- SI L-6/STIB900 [3]: 0.68

Compound: CN1CCN(CCCCCCCCC/C=C/c2cc(=O)c3ccccc3n2C)CC1 [Compound 20, 1-Methyl-2-[(1′E)-11′(N-methylpiperazinyl)undecenyl]-4-(1H)-quinolone]
- IC50 [1, 4]: 1.35 µM
- SI L-6/NF54 [1]: 24.14
- IC50 [2, 5]: 32.5 µM
- IC50 [3, 6]: 4.94 µM
- SI L-6/STIB900 [3]: 6.59

Compound: Nc1nc(N)nc(Nc2ccc([As]3SCC(CO)S3)cc2)n1 (stereo not drawn) [Melarsoprol, reference compound]
- IC50 ([3]; 70 h): 0.0075 µM

Compound: Cn1c(CCCCC=C2CCCCCC2)cc(=O)c2ccccc21 [Compound 31]
- IC50 [1, 4]: 10.1 µM
- SI L-6/NF54 [1]: 4.52
- IC50 [2, 5]: 45.8 µM
- IC50 [3, 6]: 14.4 µM
- SI L-6/STIB900 [3]: 3.19

Compound: COc1cc([C@@H]2c3cc4c(cc3[C@H](O)[C@H]3COC(=O)[C@H]23)OCO4)cc(OC)c1OC [Podophyllotoxin, reference compound]
- IC50 ([2]; Rattus norvegicus, 70 h): 0.017 µM
